# Source: patent US8012492B2, “In vitro model of latent mycobacterial infection” (University of Central Florida Research Foundation, Inc., priority 2007, dated 2011)
# Tests used:
# Mtb within TDM = assay type: cell-based, Mycobacterium tuberculosis
# WT-H37Rv = assay type: cell-based, Mycobacterium tuberculosis
compound,measurement,setting,value
NNC(=O)c1ccncc1 [INH],Resistance of Mtb recovered from TDM to antibiotics,Mtb within TDM,showed resistance to both antibiotics
"CO[C@H]1/C=C/O[C@@]2(C)Oc3c(C)c(O)c4c(O)c(c(/C=N/N5CCN(C)CC5)c(O)c4c3C2=O)NC(=O)/C(C)=C\C=C\[C@H](C)[C@H](O)[C@@H](C)[C@@H](O)[C@@H](C)[C@H](OC(C)=O)[C@@H]1C [Rif, Rifampicin]",Rif resistant cells,WT-H37Rv,about 10%
same,Rif-resistance,WT-H37Rv,up to 25%
same,Rif-resistant cells,WT-H37Rv,about 0.03%
same,"Development of Rif resistance, share of the Mtb population",Mtb within TDM,about 25%
